Legend:
[1] = molecular target: T1, Muscarinic acetylcholine receptor M4 (Homo sapiens, UniProt P08173); assay: Agonist activity at muscarinic M4 receptor; format: functional
T1 sequence (P08173 whole entry): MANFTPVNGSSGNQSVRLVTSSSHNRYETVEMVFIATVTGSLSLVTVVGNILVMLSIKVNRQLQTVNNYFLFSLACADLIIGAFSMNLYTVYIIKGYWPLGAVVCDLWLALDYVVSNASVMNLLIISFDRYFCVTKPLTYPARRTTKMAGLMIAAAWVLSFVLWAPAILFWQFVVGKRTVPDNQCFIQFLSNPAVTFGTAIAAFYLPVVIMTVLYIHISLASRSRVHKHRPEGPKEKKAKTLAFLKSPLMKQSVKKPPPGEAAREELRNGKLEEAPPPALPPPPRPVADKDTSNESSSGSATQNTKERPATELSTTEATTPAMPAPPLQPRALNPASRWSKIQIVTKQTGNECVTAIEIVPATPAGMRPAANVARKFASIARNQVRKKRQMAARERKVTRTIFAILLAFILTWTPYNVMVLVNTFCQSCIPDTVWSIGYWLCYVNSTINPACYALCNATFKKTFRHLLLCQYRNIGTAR

[2] = molecular target: Muscarinic acetylcholine receptor M3 (Homo sapiens, UniProt P20309); assay: Agonist activity at muscarinic M3 receptor; format: functional
Chain of Muscarinic acetylcholine receptor M3 (P20309 whole entry): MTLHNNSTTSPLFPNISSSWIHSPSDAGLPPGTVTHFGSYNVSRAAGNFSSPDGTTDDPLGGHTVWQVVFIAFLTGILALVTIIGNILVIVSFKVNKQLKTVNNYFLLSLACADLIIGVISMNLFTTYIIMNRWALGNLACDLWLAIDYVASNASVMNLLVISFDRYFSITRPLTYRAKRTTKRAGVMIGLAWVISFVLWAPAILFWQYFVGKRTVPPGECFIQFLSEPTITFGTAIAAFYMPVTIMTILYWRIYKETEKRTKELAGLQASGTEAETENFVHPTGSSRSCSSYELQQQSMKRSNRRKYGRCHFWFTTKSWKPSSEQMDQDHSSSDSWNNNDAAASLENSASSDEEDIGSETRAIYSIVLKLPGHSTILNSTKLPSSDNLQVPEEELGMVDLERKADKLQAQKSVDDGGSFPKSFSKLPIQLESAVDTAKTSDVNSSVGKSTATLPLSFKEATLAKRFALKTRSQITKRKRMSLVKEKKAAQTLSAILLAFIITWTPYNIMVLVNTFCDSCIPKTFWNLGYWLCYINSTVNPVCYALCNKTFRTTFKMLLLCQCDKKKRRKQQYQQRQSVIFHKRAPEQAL

[3] = molecular target: T2, Muscarinic acetylcholine receptor M1 (Homo sapiens) (UniProt P11229); assay: Agonist activity at muscarinic M1 receptor relative to carbachol; format: functional
T2 sequence (whole entry): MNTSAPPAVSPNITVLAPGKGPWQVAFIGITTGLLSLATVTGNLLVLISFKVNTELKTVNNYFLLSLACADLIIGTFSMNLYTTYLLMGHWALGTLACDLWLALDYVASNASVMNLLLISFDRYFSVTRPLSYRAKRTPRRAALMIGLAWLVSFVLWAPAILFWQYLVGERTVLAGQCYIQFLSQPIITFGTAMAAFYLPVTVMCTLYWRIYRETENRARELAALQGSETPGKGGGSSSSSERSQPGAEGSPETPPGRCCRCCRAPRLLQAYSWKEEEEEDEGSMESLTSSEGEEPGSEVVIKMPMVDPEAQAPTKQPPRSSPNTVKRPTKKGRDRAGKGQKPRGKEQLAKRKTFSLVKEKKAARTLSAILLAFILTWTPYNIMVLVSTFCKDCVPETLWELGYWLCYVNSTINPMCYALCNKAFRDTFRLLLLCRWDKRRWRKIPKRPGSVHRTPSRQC

[4] = molecular target: T3, Muscarinic acetylcholine receptor M1 (Homo sapiens, UniProt P11229); assay: Agonist activity at muscarinic M1 receptor; format: functional
T3 sequence (P11229 whole entry): T2 sequence (whole entry)

[5] = molecular target: T4, Muscarinic acetylcholine receptor M2 (Homo sapiens, UniProt P08172); assay: Agonist activity at muscarinic M2 receptor; format: functional
T4 sequence (P08172 whole entry): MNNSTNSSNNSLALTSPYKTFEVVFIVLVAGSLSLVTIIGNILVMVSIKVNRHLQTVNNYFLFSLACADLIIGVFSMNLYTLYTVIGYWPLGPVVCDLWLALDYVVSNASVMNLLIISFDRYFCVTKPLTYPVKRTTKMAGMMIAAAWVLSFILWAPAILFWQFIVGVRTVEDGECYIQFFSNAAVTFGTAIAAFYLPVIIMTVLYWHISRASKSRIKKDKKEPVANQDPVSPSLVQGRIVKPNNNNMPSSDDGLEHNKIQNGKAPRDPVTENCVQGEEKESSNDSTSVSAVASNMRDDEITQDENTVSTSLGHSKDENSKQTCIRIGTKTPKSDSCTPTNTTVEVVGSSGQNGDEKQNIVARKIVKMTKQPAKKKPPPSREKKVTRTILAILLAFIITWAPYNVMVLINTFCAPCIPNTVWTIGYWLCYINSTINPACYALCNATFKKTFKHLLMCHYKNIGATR

D(2) dopamine receptor [6] = molecular target: T5, D(2) dopamine receptor (Homo sapiens, UniProt P14416); assay: Inhibition of dopamine D2 receptor
T5 sequence (P14416 whole entry): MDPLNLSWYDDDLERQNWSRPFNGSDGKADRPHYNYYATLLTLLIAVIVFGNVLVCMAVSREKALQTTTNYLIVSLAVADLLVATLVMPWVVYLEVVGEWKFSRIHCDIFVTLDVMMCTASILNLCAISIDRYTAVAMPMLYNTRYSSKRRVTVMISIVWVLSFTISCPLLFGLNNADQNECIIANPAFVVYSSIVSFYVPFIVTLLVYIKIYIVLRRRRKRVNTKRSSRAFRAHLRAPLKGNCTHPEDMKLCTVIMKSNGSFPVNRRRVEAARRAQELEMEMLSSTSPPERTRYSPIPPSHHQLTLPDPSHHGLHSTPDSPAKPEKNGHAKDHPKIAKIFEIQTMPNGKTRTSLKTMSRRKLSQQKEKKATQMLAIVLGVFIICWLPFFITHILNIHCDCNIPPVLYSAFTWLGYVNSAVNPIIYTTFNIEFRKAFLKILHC

[7] = molecular target: T6, Muscarinic acetylcholine receptor M5 (Homo sapiens, UniProt P08912); assay: Agonist activity at muscarinic M5 receptor; format: functional
T6 sequence (P08912 whole entry): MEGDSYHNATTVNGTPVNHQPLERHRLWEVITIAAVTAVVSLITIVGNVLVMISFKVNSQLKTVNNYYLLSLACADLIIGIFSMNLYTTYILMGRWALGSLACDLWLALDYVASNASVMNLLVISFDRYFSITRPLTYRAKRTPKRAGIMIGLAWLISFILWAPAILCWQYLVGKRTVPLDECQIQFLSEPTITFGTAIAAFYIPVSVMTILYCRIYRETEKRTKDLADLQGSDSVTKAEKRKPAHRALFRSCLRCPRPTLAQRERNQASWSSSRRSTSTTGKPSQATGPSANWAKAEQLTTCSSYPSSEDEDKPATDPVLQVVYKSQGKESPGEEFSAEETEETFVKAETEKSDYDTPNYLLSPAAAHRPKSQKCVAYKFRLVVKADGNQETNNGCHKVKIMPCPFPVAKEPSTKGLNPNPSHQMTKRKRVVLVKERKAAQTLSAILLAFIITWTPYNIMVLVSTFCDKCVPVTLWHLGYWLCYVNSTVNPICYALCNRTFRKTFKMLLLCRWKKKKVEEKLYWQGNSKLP

D(2) dopamine receptor [8] = molecular target: T5, D(2) dopamine receptor; assay: Inhibition of dopamine D2 receptor at 10 uM; parameters: scale not given: the % may be the effect or the level left
[9] = molecular target: T7, Muscarinic acetylcholine receptor M5 (Homo sapiens) (UniProt P08912); assay: Agonist activity at muscarinic M5 receptor relative to carbachol; format: functional
T7 sequence (whole entry): T6 sequence (P08912 whole entry)

[10] = molecular target: T8, Muscarinic acetylcholine receptor M4 (Homo sapiens) (UniProt P08173); assay: Agonist activity at muscarinic M4 receptor relative to carbachol; format: functional
T8 sequence (whole entry): T1 sequence (P08173 whole entry)

[11] = molecular target: T9, Muscarinic acetylcholine receptor M2 (Homo sapiens) (UniProt P08172); assay: Agonist activity at muscarinic M2 receptor relative to carbachol; format: functional
T9 sequence (whole entry): T4 sequence (P08172 whole entry)

Row | Compound | EC50 [1] [µM] | EC50 [2] [µM] | Activity [3] [%] | EC50 [4] [µM] | EC50 [5] [µM] | IC50 (D(2) dopamine receptor [6]) [µM] | EC50 [7] [µM] | Activity (D(2) dopamine receptor [8]) [%] | Activity [9] [%] | Activity [10] [%] | Activity [11] [%]
1 | O=c1[nH]c2ccccc2n1C1CCN(C2CCN(Cc3ccccc3[N+](=O)[O-])CC2)CC1 | > 50 | > 50 | 48 | 0.12 | > 50 | 1.13 | > 50 |  |  |  | 
2 | O=c1[nH]c2cc(Cl)ccc2n1C1CCN(C2CCN(Cc3ccccc3[N+](=O)[O-])CC2)CC1 | > 50 | > 50 | 42 | 1.1 | > 50 |  | > 50 |  |  |  | 
3 | Cc1ccccc1CN1CCC(N2CCC(n3c(=O)[nH]c4cc(F)ccc43)CC2)CC1 | > 50 | > 50 | 85 |  | > 50 |  | > 50 | 40 |  |  | 
4 | N#Cc1ccccc1CN1CCC(N2CCC(n3c(=O)[nH]c4cc(Cl)ccc43)CC2)CC1 | > 50 | > 50 | 27 | 1.6 | > 50 |  | > 50 |  |  |  | 
5 | O=c1[nH]c2cc(Cl)ccc2n1C1CCN(C2CCN(Cc3ccccc3Cl)CC2)CC1 | > 50 | > 50 | 49 | 1.8 | > 50 |  | > 50 |  |  |  | 
6 | Cc1ccccc1CN1CCC(N2CCC(n3c(=O)[nH]c4ccc(F)cc43)CC2)CC1 | > 50 | > 50 | 84 |  | > 50 | > 10 | > 50 |  |  |  | 
7 | O=c1[nH]c2ccccc2n1C1CCN(C2CCN(Cc3ccccc3Cl)CC2)CC1 | > 50 | > 50 | 44 | 0.26 | > 50 | 2.06 | > 50 |  |  |  | 
8 | CCOC(=O)N1CCC(N2CCC(n3c(=O)[nH]c4ccccc43)CC2)CC1 | 0.0091 |  |  |  | 0.0119 | > 10 | 0.0343 |  | 50.8 | 96.9 | 80.6
9 | O=c1[nH]c2cc(Cl)ccc2n1C1CCN(C2CCN(Cc3ccccc3)CC2)CC1 | > 50 | > 50 | 74 | 0.356 | > 50 |  | > 50 | 35 |  |  | 
10 | O=c1[nH]c2ccc(F)cc2n1C1CCN(C2CCN(Cc3ccccc3C(F)(F)F)CC2)CC1 | > 50 | > 50 |  |  | > 50 | > 10 | > 50 |  |  |  | 
11 | Cc1ccccc1CN1CCC(N2CCC(n3c(=O)[nH]c4ccccc43)CC2)CC1 |  |  | 82 |  | > 50 | 2.65 | > 50 |  |  |  | 
12 | N#Cc1ccccc1CN1CCC(N2CCC(n3c(=O)[nH]c4ccccc43)CC2)CC1 | > 50 | > 50 | 23 | 0.49 | > 50 |  | > 50 | 40 |  |  | 
13 | O=c1[nH]c2cc(Cl)ccc2n1C1CCN(C2CCN(Cc3ccccc3C(F)(F)F)CC2)CC1 | > 50 | > 50 | 83 | 1.5 | > 50 |  | > 50 |  |  |  | 
14 | Cc1ccccc1CN1CCC(N2CCC(n3c(=O)[nH]c4cc(Cl)ccc43)CC2)CC1 | > 50 | > 50 | 84 | 1.03 | > 50 |  | > 50 | 35 |  |  | 
15 | O=c1[nH]c2c(F)cccc2n1C1CCN(C2CCN(Cc3ccccc3C(F)(F)F)CC2)CC1 | > 50 | > 50 | 75 |  | > 50 | > 10 | > 50 |  |  |  | 
16 | O=c1[nH]c2ccccc2n1C1CCN(C2CCN(Cc3ccccc3C(F)(F)F)CC2)CC1 | > 50 | > 50 |  | 0.41 | > 50 |  | > 50 | 30 |  |  | 
17 | O=c1[nH]c2cc(F)ccc2n1C1CCN(C2CCN(Cc3ccccc3C(F)(F)F)CC2)CC1 | > 50 | > 50 | 80 |  | > 50 | 2.69 | > 50 |  |  |  | 
18 | Cc1ccccc1CN1CCC(N2CCC(n3c(=O)[nH]c4c(F)cccc43)CC2)CC1 | > 50 | > 50 | 73 |  | > 50 | > 10 | > 50 |  |  |  | 

From ChEMBL document CHEMBL1142444 (Bioorg Med Chem Lett, 2008)
